# Test results as given in article PMC7848885, “Population Pharmacokinetics of Intraventricular Vancomycin in Neonatal Ventriculitis, A Preterm Pilot Study” (European Journal of Pharmaceutical Sciences, 2021).
# What was measured:
# [1] = system: Staphylococcal epidermidis; conditions: adult CSF samples, MIC 2mg/L; ref Nagl et al., 1999; cited from earlier work
# Protocol: (§1) Staphylococci species are the predominant causative organisms in neonatal ventriculitis ([Adams-Chapman et al., 2008]; [Parasuraman et al., 2018]). […] However, IV vancomycin is only able to achieve CSF vancomycin concentrations of 1.1-6mg/L, across the adult and the neonatal population ([Li et al., 2015]; [Beach et a ...
# [2] = system: Staphylococcus aureus; conditions: adult CSF samples, MIC 2mg/L; ref Nagl et al., 1999; cited from earlier work
# Protocol: as §1
# [3] = Observed plasma and CSF vancomycin levels (QMS immunoassay); assay type: in vivo, preterm infants; conditions: median (range)
# Excerpt: CSF WCC, microbiological CSF culture results, CSF protein levels, IV vancomycin and intraventricular vancomycin doses administered, all available CSF vancomycin levels and serum vancomycin levels, dates and times of IV vancomycin doses, intraventricular vancomycin doses, serum and CSF vancomycin levels.
# CSF samples for vancomycin levels were taken when the ventricular access device was accessed for routine CSF drainage, as needed for clinical management of hydrocephalus, for the individual baby. Due to this routine practice, the CSF vancomycin levels were taken at random time points. Repeat intraventricular vancomycin dose was administered if the level dropped under the threshold of 10mg/L. The target CSF vancomycin concentration was at least ten times above the breakpoint of MIC for CoNS. This was chosen as these were the principal infecting organisms in the defined neonatal cohort and the study hospital's MIC breakpoint for CoNS is 1 mg/L (EUCAST MIC breakpoint, 4 mg/L) ([EUCAST, 2017]).
# The CSF vancomycin measurements were undertaken in the local microbiology laboratory, which is a national referral centre for antibiotic assays, through quantitative microsphere system (QMS® Thermo Scientific)-based immunoassay ([Thermo Scientific. QMS ® Vancomycin (VANCO), 2015]). […]
# [4] = cited from earlier work
# Excerpt: Staphylococci species are the predominant causative organisms in neonatal ventriculitis ([Adams-Chapman et al., 2008]; [Parasuraman et al., 2018]).
# [5] = Population pharmacokinetic (NLME) model of plasma vancomycin after IV dosing
# [6] = Population pharmacokinetic (NLME) model of CSF vancomycin after intraventricular dosing
# Protocol: Intraventricular vancomycin was given when the ventricular access device was accessed for the routine drainage. Intraventricular vancomycin concentration used was 10 mg/mL, in a sterile preparation, and was given as a slow bolus over 2 minutes. The intraventricular vancomycin was given at the end of the CSF drainage. The ventricular access device was flushed with 1ml of sterile NaCl 0.9% following instillation of the intraventricular vancomycin.
# Using a one-compartment modelling approach, CSF compartment was added to the plasma modelling. The CSF model equation, with the incorporated plasma model is given below: dA(p)/dt=−clp/vp×A(p)dA(csf)/dt=−clcsf/vcsf×A(csf) Where p is plasma, cl is clearance, v is volume, A is amount, csf is cerebrospinal fluid, dA(p)/dt is change in plasma concentrations with time and dA(csf)/dt is change in cerebrospinal fluid concentrations with time.
# In the first instance, parallel dosing was used, and no transfer was assumed between plasma and CSF. Mass transfer in both directions (plasma to CSF; CSF to plasma) was tested using first-order rate constants. We tested 2 covariates of VI and CSF protein, on CSF clearance and volume and CSF clearance respectively.
# [7] = cited from earlier work; remark: listed apart in the source
# [8] = cited from earlier work; remark: listed apart in the source
# Excerpt: Staphylococci species are the predominant causative organisms in neonatal ventriculitis ([Adams-Chapman et al., 2008]; [Parasuraman et al., 2018]). […] A more recent work by Li et al highlighted that the disturbance of the blood brain barrier was important in transfer of IV vancomycin into the ...
# [9] = with CSF vancomycin level ranging from 2.5-230.7 mg/L, preterm infants; ref Parasuraman et al., 2018; cited from earlier work
# Protocol: We have previously examined the relationship of 4 different intraventricular vancomycin doses, between 3mg to 15mg, and the CSF vancomycin concentrations, in a small cohort of preterm infants of < 28 weeks gestation ([Parasuraman et al., 2018]). In the four different dose models, the CSF vancomycin levels were adequately maintained at a level of at least ten times above the breakpoint of MIC (>10 mg/L) for coagulase-negative staphylococci (CoNS) ([Parasuraman et al., 2018]).
# [10] = ref Schilling et al., 2011; cited from earlier work
# Excerpt: The CSF protein was examined as a covariate in this study as 50-55% of vancomycin is protein bound ([Schilling et al., 2011]). As the CSF protein in a preterm baby is higher than that of a term infant, we hypothesised that this may have an effect on the unbound vancomycin in the CSF ([Majumdar et al., 2013]; [De Cock et al., 2017]). However, no significant association was found between VI, CSF protein and CSF vancomycin levels. This is an important finding in the preterm population, to review current intraventricular vancomycin prescribing parameters and practice.
# [11] = system: preterm infants with neonatal ventriculitis; assay: Time to CSF sterilisation versus model-predicted CSF AUC(0-24) and C average; assay type: in vivo; conditions: observed trend, 8 preterm infants; paper says the data is too erratic to interpret
# Excerpt: Time to sterilisation was defined as length of time taken for CSF WCC to fall to < 20/mm^3 and simultaneously achieve sterile CSF.
# Area under the curve (AUC) predictions were generated for CSF vancomycin from the final model. We explored the relationships between AUC 0-24 and average CSF concentration (C average; defined as AUC(0-t)/t; t = time) and time to sterilisation of CSF.
compound,measurement,setting,value
CN[C@H](CC(C)C)C(=O)N[C@H]1C(=O)N[C@@H](CC(N)=O)C(=O)N[C@H]2C(=O)N[C@H]3C(=O)N[C@H](C(=O)N[C@H](C(=O)O)c4cc(O)cc(O)c4-c4cc3ccc4O)[C@H](O)c3ccc(c(Cl)c3)Oc3cc2cc(c3O[C@@H]2O[C@H](CO)[C@@H](O)[C@H](O)[C@H]2O[C@H]2C[C@](C)(N)[C@H](O)[C@H](C)O2)Oc2ccc(cc2Cl)[C@H]1O [vancomycin],concentration of maximum microbiocidal effect,[1],5 to 10 mg/L
same,concentration of maximum microbiocidal effect,[2],5 to 10 mg/L
same,CSF concentrations,"[3]; 8 preterm infants, intraventricular starting doses 3, 5, 10, 15 mg, CSF time after dose 7.39 (0.02-57.37) h, QMS immunoassay",24.9 (2.5-230.7) mg/L
same,plasma concentrations,"[3]; preterm infants on concomitant IV vancomycin 15 mg/kg starting dose, plasma time after dose 5.59 (0-14) h",8.6 (2.2-26.6) mg/L
same,CSF vancomycin levels at 72 hours post administration,"[4]; 5mg intraventricular vancomycin starting dose, neonatal ventriculitis, ref Matsunaga et al., 2015",16.5 mg/L
same,CSF vancomycin levels maintained,"[4]; four intraventricular dose models 3mg to 15mg, preterm infants < 28 weeks gestation, at least ten times above the MIC breakpoint for CoNS, ref Parasuraman et al., 2018",> 10 mg/L
same,CSF vancomycin level range,"[4]; intraventricular vancomycin, preterm infants < 28 weeks gestation, ref Parasuraman et al., 2018",2.5 to 230.7 mg/L
same,"CL, Estimate (%RSE)","[5]; plasma clearance, final one-compartment model, allometrically scaled to 70 kg, 37 plasma samples from 5 preterm infants on IV vancomycin, value (%RSE)",9.29(5.2) L/h/70 kg
same,"CL, Bootstrap median (95% CI)","[5]; plasma clearance, non-parametric bootstrap of 1000 samples",9.5 (8.7 – 10.9) L/h/70 kg
same,"V, Estimate (%RSE)","[5]; plasma volume of distribution, final one-compartment model, scaled to 70 kg, value (%RSE)",54.4(11.5) L/70 kg
same,"V, Bootstrap median (95% CI)","[5]; plasma volume of distribution, non-parametric bootstrap of 1000 samples",53.5 (47.6 – 119.8) L/70 kg
same,"CLCSF, Estimate (%RSE)","[6]; CSF clearance, final model, intraventricular vancomycin, 67 CSF samples from 8 preterm infants, value (%RSE)",0.002(12.9) L/h
same,"CLCSF, Bootstrap median (95% CI)","[6]; CSF clearance, non-parametric bootstrap of 1000 samples",0.002 (0.002 - 0.003) L/h
same,"VCSF, Estimate (%RSE)","[6]; CSF volume of distribution, final model, intraventricular vancomycin, value (%RSE)",0.109(23.8) L
same,"VCSF, Bootstrap median (95% CI)","[6]; CSF volume of distribution, non-parametric bootstrap of 1000 samples",0.11 (0.069 - 0.172) L
same,transfer between plasma and CSF,"[6]; first-order transfer rate constants tested in both directions in the model, no significant improvement in fit",did not demonstrate an appreciable transfer between plasma and CSF
same,serum vancomycin concentration after intraventricular vancomycin administration,"[7]; 10mg intraventricular, ref Pfausler et al., 2003",below measurable concentration
same,vancomycin transferred from CSF into plasma,"[7]; attributed to the larger volume of plasma compared to CSF, ref Li et al., 2017",inconsequential
same,CSF concentrations achieved,"[8]; IV vancomycin regimes 2g-3.5g/day, 6 adult patients with ventriculitis, ref Beach et al., 2017",1.1 to 6 mg/L
same,mean stable vancomycin concentration in the CSF,"[8]; IV vancomycin, ref Li et al., 2015",2 mg/L
same,CSF vancomycin concentrations achieved by IV vancomycin,"[8]; across the adult and the neonatal population, ref Li et al., 2015, Beach et al., 2017, Reiter and Doron, 1996",1.1 to 6 mg/L
same,"complications, specifically renal effects and ototoxicity",[9],no confirmed complications
same,protein bound,[10],50-55%
same,time to CSF sterilisation versus CSF AUC (0-24) and C average,[11],shorter time to sterilisation with higher AUC (0-24) and C average
